Laboratory results as given in ChEMBL document CHEMBL1142403, “Synthesis and anti-cancer activity of benzothiazole containing phthalimide on human carcinoma cell lines” (Bioorg Med Chem, 2008).
Active and inactive are the calls of the source. No cut-off for these calls is given here.

Assays:
[1] = test system: SK-HEP1; test: Cytotoxicity against human SK-Hep1 cells assessed as reduction in cellular ATP level after 48 hrs; assay type: functional, cell-based; conditions: SK-HEP1, 48 h, pooled result: one value given for 3 cell lines, strains, targets or settings
[2] = molecular target: T1, Caspase-3 (Homo sapiens) (UniProt P42574); test: Activation of human caspase 3 in human CA46 cells at 110 uM after 48 hrs by PerkinElmer Trupoint assay; assay type: cell-based
T1 sequence (whole entry): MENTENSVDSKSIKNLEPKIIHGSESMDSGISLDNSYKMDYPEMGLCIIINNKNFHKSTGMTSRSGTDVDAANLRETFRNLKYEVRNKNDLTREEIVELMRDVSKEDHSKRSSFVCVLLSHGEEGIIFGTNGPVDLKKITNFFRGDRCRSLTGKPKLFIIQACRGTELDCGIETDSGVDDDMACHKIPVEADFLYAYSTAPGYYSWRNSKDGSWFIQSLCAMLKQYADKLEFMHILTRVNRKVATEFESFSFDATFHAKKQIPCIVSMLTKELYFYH

[3] = molecular target: T1, Caspase-3 (Homo sapiens); test: Activation of human caspase 3 in human SK-Hep1 cells at 110 uM after 48 hrs by PerkinElmer Trupoint assay; assay type: cell-based

Row | Activity [2] | Activity [3] | Compound | IC50 [1]
1 | Active | Active | O=C1c2ccccc2C(=O)N1c1nc2ccc(OC(F)(F)F)cc2s1 [PHATHALIMIDE] | 69 µM
2 |  |  | C[C@@]12C(=O)N(c3nc4ccc(OC(F)(F)F)cc4s3)C(=O)[C@]1(C)[C@H]1CC[C@@H]2O1 [CANTHARIDIMIDE] | 15.2 µM
